Some results are limits rather than exact numbers.

Type in all cases: functional
One experiment has as its system Candida albicans. As to the kind of experiment: Antimicrobial activity against Candida albicans by Kirby-Bauer growth inhibition assay.
In another experiment the test system is Escherichia coli. Put plainly: Antimicrobial activity against Escherichia coli by Kirby-Bauer growth inhibition assay.
A further experiment concerns Micrococcus luteus. As to the kind of experiment: Antimicrobial activity against Micrococcus luteus by Kirby-Bauer growth inhibition assay.

Take `CC1(C)C[C@H]2C=C(C=O)[C@]3(C=O)C[C@]3(C)[C@H]2C1` [ISOVELLERAL]: the results for the Activity in the experiment with Candida albicans, in the experiment with Escherichia coli and with Micrococcus luteus were 2 µg, 15 µg and 2 µg, respectively.

As to `CC1(C)C[C@H]2C=C3COC(O)[C@]34C[C@]4(C)[C@H]2C1` (stereo not given in full) [ISOVELLEROL], the Activity in the experiment with Candida albicans is 50 µg; in the experiment on Escherichia coli, over 1000 µg; in the experiment on Micrococcus luteus it was 300 µg.

For `C[C@H]1C=C(C=O)C(C=O)=C[C@@H]2CC(C)(C)C[C@@H]21` [LACTARANE], the Activity came out at 2 µg with Candida albicans, 50 µg with Escherichia coli and 15 µg with Micrococcus luteus.

Consider `C[C@H]1C=C(CO)C(CO)=C[C@@H]2CC(C)(C)C[C@@H]21` [VELLERDIOL], for which the Activity with Candida albicans, in the experiment with Escherichia coli and in the experiment on Micrococcus luteus was over 1000 µg throughout.

Turning to `C[C@H]1C=C(C=O)C(CO)=C[C@@H]2CC(C)(C)C[C@@H]21` [VELLEROL], the Activity with Candida albicans is 100 µg; in the experiment on Escherichia coli, over 1000 µg; in the experiment on Micrococcus luteus, 300 µg.

Source of the values: ChEMBL document CHEMBL1151648, “The Sesquiterpenes of Lactarius vellereus and Their Role in a Proposed Chemical Defense System” (J Nat Prod, 1985).
